The species entered for assay [1] is Rattus norvegicus. Nature of the assay: In vitro inhibition of dopamine (DA) uptake in synaptosomal preparation of rat brain. In kind it is functional, organism-based.
Assay [2] is filed under the species Rattus norvegicus. Put plainly: In vitro inhibition of serotonin uptake in synaptosomal preparation of rat brain. In kind it is functional, organism-based.
The subject of a further assay is Mus musculus. Nature of the assay: Compound was tested for the inhibition of tetrabenazine-induced sedation in mice, after peroral administration. The class given is functional. To be noted: po.
For assay [3], the species on record is Rattus norvegicus. Nature of the assay: In vitro inhibition of norepinephrine (NE) uptake in synaptosomal preparation of rat brain. In kind it is functional, organism-based.
Assay [4] concerns Rattus norvegicus. Nature of the assay: Compound was tested for the inhibition of tetrabenazine-induced sedation in rat, after peroral administration. The class given is functional. To be noted: po.
Assay [5] deals with Rattus norvegicus. Put plainly: Compound was tested for the inhibition of tetrabenazine-induced sedation in rat, after peroral administration; failed to produce a 50%antagonism. The note with it: po. In kind it is functional.

As for `C[C@@H]1CO[C@@](O)(c2cc(F)cc(F)c2)[C@H](C)N1` [MANIFAXINE], the half-maximal inhibitory concentration (IC50) is 1000 nM in the assay filed under Rattus norvegicus [1], over 10000 nM in the assay filed under Rattus norvegicus [2] and 70 nM in the assay filed under Rattus norvegicus [3]. Also, the values for the ED50 in the assay with Mus musculus and in the assay with Rattus norvegicus [4] were 6.2 mg/kg and 1.4 mg/kg, respectively.
As for `CC(NC(C)(C)C)C(=O)c1cccc(Cl)c1` (stereo not given) [BUPROPION], the figures for the IC50 in the assay listed under Rattus norvegicus [1], in the assay listed under Rattus norvegicus [2] and in the assay filed under Rattus norvegicus [3] were 900 nM, over 10000 nM and 2400 nM, respectively. The ED50 was 32 mg/kg with Mus musculus and over 100 mg/kg in the assay on Rattus norvegicus [5].
Regarding `CN(C)CCCN1c2ccccc2CCc2ccccc21` [IMIPRAMINE], the IC50 was over 10000 nM in the assay filed under Rattus norvegicus [1], 500 nM in the assay listed under Rattus norvegicus [2] and 40 nM in the assay filed under Rattus norvegicus [3]. In addition, the values for the ED50 in the assay with Mus musculus and in the assay with Rattus norvegicus [4] were 9 mg/kg and 13.4 mg/kg, respectively.

For the origin of these results see ChEMBL document CHEMBL1129047, “(2S,3S,5R)-2-(3,5-difluorophenyl)-3,5-dimethyl-2-morpholinol: a novel antidepressant agent and selective inhibitor of norepinephrine uptake” (J Med Chem, 1996).
